From US6495578B1, “Sulfonamide derivatives having oxadiazole rings” (Shionogi & Co., Ltd., priority 1999, dated 2002)

Legend:
[1] = target: T1, MMP-2 (Homo sapiens, UniProt P08253); assay: Assay for inhibitory activities on MMP-2 (fluorogenic coumarin-labelled peptide substrate); type: biochemical; details: MMP-2 purchased from Calbiochem-Novabiochem; substrate MOCAc-Pro-Leu-Gly-Leu-A2Pr(DNP)-Ala-Arg-NH2
T1 construct: purchased Calbiochem-Novabiochem International, Inc
T1 sequence (P08253 110-660): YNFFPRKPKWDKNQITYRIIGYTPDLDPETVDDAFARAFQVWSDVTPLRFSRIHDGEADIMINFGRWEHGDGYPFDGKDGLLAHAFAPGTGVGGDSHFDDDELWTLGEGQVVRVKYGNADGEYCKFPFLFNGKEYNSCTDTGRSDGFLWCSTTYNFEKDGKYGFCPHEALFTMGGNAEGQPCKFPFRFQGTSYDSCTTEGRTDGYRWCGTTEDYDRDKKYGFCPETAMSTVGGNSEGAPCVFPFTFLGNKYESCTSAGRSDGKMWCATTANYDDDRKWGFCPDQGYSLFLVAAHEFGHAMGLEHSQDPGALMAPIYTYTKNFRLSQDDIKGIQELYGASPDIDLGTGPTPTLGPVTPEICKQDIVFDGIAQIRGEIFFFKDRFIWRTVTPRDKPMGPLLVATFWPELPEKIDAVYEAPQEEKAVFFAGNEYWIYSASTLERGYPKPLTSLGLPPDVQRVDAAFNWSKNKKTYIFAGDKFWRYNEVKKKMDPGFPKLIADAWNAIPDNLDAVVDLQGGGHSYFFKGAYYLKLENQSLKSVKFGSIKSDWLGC
Experimental: MMP-2 was purchased from Calbiochem-Novabiochem International, Inc.
The enzymatic activity on MMP-2 was analyzed by the method described in “C. Graham Knight, Frances Willenbrock and Gillian Murphy: A novel coumarin-labelled peptide for sensitive continuous assays of the matrix metalloproteinases: FEBS LETT., 296, (1992), 263-266”. The substrate: MOCAc-Pro-Leu-Gly-Leu-A2Pr(DNP)-Ala-Arg-NH2 was purchased from Peptide Institute, Inc., Osaka, Japan.
The measurement of the inhibitory activities (IC50) was carried out by the following four methods;
A) Reaction with substrate, enzyme (MMPs) and inhibitor
B) Reaction with substrate and inhibitor, without enzyme
C) Reaction with substrate and enzyme (MMPs), without inhibitor
D) Reaction with substrate only
IC50 values were calculated by using the following formula and each fluorescence values of above four methods (A to D).
IC50 means the concentration required to inhibit 50% of the enzyme activity.

Structure (SMILES)	melting point [°C]	IC50 [1] [nM]
CCCc1ccc(-c2nc(-c3ccc(S(=O)(=O)N[C@H](Cc4ccccc4)C(=O)O)s3)no2)cc1 [Compound B-5]	–	36.1
Cc1ccc(-c2nc(-c3ccc(S(=O)(=O)N[C@H](Cc4ccccc4)C(=O)O)s3)no2)s1 [Compound B-6]	–	26.5
C[C@@H](NS(=O)(=O)c1ccc(-c2noc(-c3ccc(F)cc3)n2)s1)C(=O)O [Compound B-7]	–	39.7
C[C@@H](NS(=O)(=O)c1ccc(-c2noc(-c3cccs3)n2)s1)C(=O)O [Compound B-9]	–	28
C[C@@H](NS(=O)(=O)c1ccc(-c2noc(-c3ccccn3)n2)s1)C(=O)O [Compound B-11]	–	614
O=C(O)[C@@H](Cc1c[nH]c2ccccc12)NS(=O)(=O)c1ccc(-c2noc(-c3ccc(F)cc3)n2)s1 [Compound B-12]	–	29
O=C(O)CNS(=O)(=O)c1ccc(-c2noc(-c3ccc(F)cc3)n2)s1 [Compound B-14]	–	224
Cc1ccc(-c2nc(-c3ccc(S(=O)(=O)NCC(=O)O)s3)no2)cc1 [Compound B-15]	–	39
CCc1ccc(-c2nc(-c3ccc(S(=O)(=O)NCC(=O)O)s3)no2)cc1 [Compound B-16]	–	12.6

Now those with a lower IC50 [1], led by results:

melting point [°C]	IC50 [1] [nM]	Structure (SMILES)
–	6.29	Cc1ccc(-c2nc(-c3ccc(S(=O)(=O)N[C@H](C)C(=O)O)s3)no2)s1 [Compound B-10]
208 to 209	4.62	Cc1ccc(-c2nc(-c3ccc(S(=O)(=O)N[C@@H](C(=O)O)C(C)C)cc3)no2)cc1 [Compound A-1]
–	4.08	CCc1ccc(-c2nc(-c3ccc(S(=O)(=O)N[C@H](Cc4c[nH]c5ccccc45)C(=O)O)s3)no2)cc1 [Compound B-13]
–	2.9	CCc1ccc(-c2nc(-c3ccc(S(=O)(=O)N[C@H](C)C(=O)O)s3)no2)cc1 [Compound B-8]
